pIC50: −log10 of the molar value. Numbered stars: 1 amine (or outer) side, 2 acyl side, 3 side chain; on linkers, the order of the positions; unused ones are H or OH. Square brackets hold non-standard residues; d marks the D form. Peptide text beside a SMILES is read from it. X1 = CC(F)(F)C[C@H](N[*:1])C(=O)[*:2]; Phe(2-Me) = Cc1ccccc1C[C@H](N)C(=O)O; Suc = O=C(CCC(=O)[*:2])[*:1]; Tle = CC(C)(C)[C@H](N)C(=O)O
Target: T1, HCV proteinase (Hepatitis C virus genotype 1b, UniProt P26662)
T1 construct: Regions encompassing the NS3 proteinase domain (amino acids 1007-1219); made in house; host or cells: E. coli strain MC1061
Experiment: HCV proteinase inhibition: cleavage of quenched fluorescence substrate NS4A/B.F peptide by enzyme MBP-NS3"Gly12-NS4A
Type: biochemical
Settings: enzyme MBP-NS3"Gly12-NS4A 1 μg in 200 μl, pH 8.5, 15 minutes preincubation, NS4A/B.F peptide 10 μM, read after a further 10 minutes
From the text: As mentioned earlier, the compounds of formula I and salts of acidic compounds of formula I with bases are inhibitors of proteases of viral origin.
The nucleotide sequence of this expression plasmid is given in FIGS. 1a-j appended hereto and the amino acid sequence of its expression product is given in FIG. 2 appended hereto. It is based on the pMAL®-c2 vector supplied by New England Biolabs, Inc. (32 Tozer Rd., Beverly, Mass., USA). The principle of the construction was to create an in-frame fusion of the maltose binding protein (MBP) gene supplied by the pMAL-c2 vector, and sequences of the HCV genome necessary for NS3 proteinase activity. These HCV sequences were inserted between the EcoRI and HindIII sites of the pMAL-c2 polylinker (positions 2695 and 3556 respectively of the sequence given in FIGS. 1a-j).
HCV sequences were derived from plasmids pDS 3348-4045 and pBFK 3348-6062, described by Bartenschlager et al, 1993 (Journal of Virology, 67, 3835-3844). Regions encompassing the NS3 proteinase domain (amino acids 1007-1219) and the NS4A domain (amino acids 1658-1711) were isolated and inserted into the pMAL-c2 vector using standard recombinant DNA techniques, including the PCR amplification of required sequences. Between the NS3 and NS4A domains, a linker region was constructed using synthetic oligonucleotides (positions 3343-3390; amino acids 606-621). The resulting plasmid was used to transform E. coli (strain MC1061) cells and expression of the MBP-NS3"Gly12 -NS4A enzyme was induced as described below.
E. coli (strain MC1061) cells transformed with the foregoing plasmid were grown in Luria broth containing ampicillin (100 μg/ml) at 37° C. The cells were grown until an optical density of 0.5 at 600 nm had been reached and enzyme expression was then induced by adding 1 mM isopropylthiogalactoside and incubating at 37° C. for a further 3 hours. The cells were harvested by centrifugation and stored at -80° C.
A pellet from 4 l of bacterial culture was resuspended in E.coli lysis buffer (20 mM Tris HCl, pH 7.5, containing 150 mM NaCl, 1 mM EDTA and 10 mM dithiothreitol) and cell lysis was achieved by two passages through a French Pressure cell. The clear supernatant obtained by centrifugation (18000 g, 30 minutes) was then applied to an amylose resin column (4×1 cm) (New England Biolabs) which had been equilibrated with ice-cold 50 mM Tris HCl, pH 8.5, containing 200 mM NaCl, 1 mM dithiothreitol and 5% glycerol. The column was washed thoroughly with the equilibration buffer and bound protein was eluted using the equilibration buffer containing 10 mM maltose. Fractions of 1 ml were collected, with fractions containing the enzyme being pooled and stored at -80° C. Enzyme concentration was assayed by the method of M. B. Bradford, Analytical Biochemistry, 1976, vol. 72, p.248.
Compounds of formula I (routinely prepared as stock solutions in DMSO) were assayed for their ability to inhibit the cleavage of a quenched fluorescence substrate [NS4A/B.F peptide (N-[4-[4-(dimethylamino)phenylazo]benzoyl]-L-α-aspartyl-L-α-glutamyl-L-methionyl-L-(x-glutamyl-L-α-glutamyl-L-cysteinyl-L-alanyl-L- seryl-L-histidyl-N5-[2-(5-sulpho-1-naphthylamino)ethyl]-L-glutaminamide); Wilkinson et al, Society for General Microbiology Meeting, University of Warwick, England, 28 Mar. 1996] based on the NS4A/4B cleavage site by enzyme MBP-NS3"Gly12 -NS4A in microtitre plates as follows:
The enzyme (1 μg) was added to 200 μl final volume of a mixture containing 50 mM Tris HCl, pH 8.5, with 1 mM dithiothreitol, 0.1% Triton X-100 and the test compound of formula I. The resulting mixture was incubated at room temperature for 15 minutes prior to starting the reaction by the addition of NS4A/B.F peptide to a final concentration of 10 μM. The progress of the reaction was evaluated with a Perseptive Biosystems Cytofluor II using an excitation wavelenth of 360 nm and an emission wavelength of 530 nm. […]

T1 sequence (P26662 1007-1219): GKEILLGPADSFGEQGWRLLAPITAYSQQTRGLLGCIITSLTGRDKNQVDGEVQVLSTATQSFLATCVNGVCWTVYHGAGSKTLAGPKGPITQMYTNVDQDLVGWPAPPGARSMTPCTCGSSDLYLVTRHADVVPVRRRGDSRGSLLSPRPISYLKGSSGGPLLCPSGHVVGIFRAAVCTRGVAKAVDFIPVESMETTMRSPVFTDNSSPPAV

## C=CCC(NC(=O)[C@H](CC(C)C)NC(=O)[C@@H](NC(=O)[C@H](Cc1ccccc1C)NC(=O)[C@H](CCC(=O)O)NC(=O)[C@H](CC(=O)O)NC(=O)CCC(=O)O)C(C)(C)C)B(O)O (mixture of isomers) [D, 1(RS)-[[N-[N-[N-[N-[N-(3-carboxypropionyl)-L-α-aspartyl]-L-α-glutamyl]-2-methyl-L-phenylalanyl]-3-methyl-L-valyl]-L-leucyl]amino]-3-butenylboronic acid]
  pIC50: 7.47

## C=CCC(C=O)NC(=O)[C@H](CC(C)C)NC(=O)[C@@H](NC(=O)[C@H](Cc1ccccc1C)NC(=O)[C@H](CCC(=O)O)NC(=O)[C@H](CC(=O)O)NC(=O)CCC(=O)O)C(C)(C)C (mixture of isomers) [A, 2(RS)-[[N-[N-[N-[N-[N-(3-carboxypropionyl)-L-α-aspartyl]-L-α-glutamyl]-2-methyl-L-phenylalanyl]-3-methyl-L-valyl]-L-leucyl]amino]-4-pentenaldehyde]
  pIC50: 7.05

## Cc1ccccc1C[C@H](NC(=O)[C@H](CCC(=O)O)NC(=O)[C@H](CC(=O)O)NC(=O)CCC(=O)O)C(=O)N[C@H](C(=O)N[C@@H](CC(C)C)C(=O)NC(C=O)CC(F)(F)F)C(C)(C)C (mixture of isomers) [C, 2(RS)-[[N-[N-[N-[N-[N-(3-carboxypropionyl)-L-α-aspartyl]-L-α-glutamyl]-2-methyl-L-phenylalanyl]-3-methyl-L-valyl]-L-leucyl]amino]-4,4,4-trifluorobutyraldehyde]
  pIC50: 7.19

## Cc1ccccc1C[C@H](NC(=O)[C@H](CCC(=O)O)NC(=O)[C@H](CC(=O)O)NC(=O)CCC(=O)O)C(=O)N[C@H](C(=O)N[C@@H](CC(C)C)C(=O)N[C@H](C=O)CC(C)(F)F)C(C)(C)C [B, 2(S)-[[N-[N-[N-[N-[N-(3-carboxypropionyl)-L-α-aspartyl]-L-α-glutamyl]-2-methyl-L-phenylalanyl]-3-methyl-L-valyl]-L-leucyl]amino]-4,4-difluorovaleraldehyde] (Suc-DE[Phe(2-Me)][Tle]L[X1]-aldehyde)
  pIC50: 7.15

## CCC(NC(=O)[C@H](CC(C)C)NC(=O)[C@@H](NC(=O)[C@H](Cc1ccccc1C)NC(=O)[C@H](CCC(=O)O)NC(=O)[C@H](CC(=O)O)NC(=O)CCC(=O)O)C(C)(C)C)B(O)O (mixture of isomers) [E, 1(RS)-[[N-[N-[N-[N-[N-(3-carboxypropionyl)-L-α-aspartyl]-L-α-glutamyl]-2-methyl-L-phenylalanyl]-3-methyl-L-valyl]-L-leucyl]amino]propylboronic acid]
  pIC50: 7.42

## CCCC(NC(=O)[C@H](CC(C)C)NC(=O)[C@@H](NC(=O)[C@H](Cc1ccccc1C)NC(=O)[C@H](CCC(=O)O)NC(=O)[C@H](CC(=O)O)NC(=O)CCC(=O)O)C(C)(C)C)B(O)O (mixture of isomers) [F, 1(RS)-[[N-[N-[N-[N-[N-(3-carboxypropionyl)-L-α-aspartyl]-L-α-glutamyl]-2-methyl-L-phenylalanyl]-3-methyl-L-valyl]-L-leucyl]amino]butylboronic acid]
  pIC50: 6.80

Reference: patent US5866684A, “Peptidyl inhibitors of viral proteases” (Hoffmann-La Roche Inc., priority 1996, dated 1999)
